ChEMBL document CHEMBL1201862, “PubChem BioAssay data set” (2004)
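96-well plates; 48 h exposure; 5 concentrations. Endpoints by linear interpolation between flanking doses. Not reached: highest tested concentration assigned. GI50 is the concentration that inhibits growth by half.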 Activity calls are given as the source filed them. No stated cut-off is given here; in the data, active = GI50 up to about 1.1 µM and inactive = higher.

Tests used:
Test in all cases: NCI tumour cell line growth inhibition, 48 h
[1] = tested on: RXF 631
[2] = tested on: RXF 393
[3] = tested on: CCRF-CEM
[4] = tested on: M19-MEL
[5] = tested on: U-251
[6] = tested on: SK-OV-3
[7] = tested on: HOP-18
[8] = tested on: UO-31
[9] = tested on: SK-MEL-2
[10] = tested on: OVCAR-3
[11] = tested on: A549
[12] = tested on: RPMI-8226
[13] = tested on: Malme-3M
[14] = tested on: 786-0
[15] = tested on: M14
[16] = tested on: NCI-H460
[17] = tested on: SF-268
[18] = tested on: HCT-116
[19] = tested on: HL-60
[20] = tested on: HCC 2998
[21] = tested on: SK-MEL-28
[22] = tested on: SNB-78
[23] = tested on: DMS-273
[24] = tested on: NCI-H522
[25] = tested on: K562
[26] = tested on: HCT-15
[27] = tested on: LXFL 529
[28] = tested on: DMS-114
[29] = tested on: SR
[30] = tested on: MOLT-4
[31] = tested on: KM-20L2
[32] = tested on: TK-10
[33] = tested on: A498
[34] = tested on: COLO 205
[35] = tested on: XF498
[36] = tested on: UACC-62
[37] = tested on: SF-295
[38] = tested on: NCI-H226
[39] = tested on: OVCAR-8
[40] = tested on: SK-MEL-5
[41] = tested on: HOP-92
[42] = tested on: SW-620
[43] = tested on: DLD-1
[44] = tested on: NCI-H23
[45] = tested on: CAKI-1
[46] = tested on: LOX IMVI
[47] = tested on: OVCAR-5
[48] = tested on: UACC-257
[49] = tested on: SN12C
[50] = tested on: IGROV-1
[51] = tested on: OVCAR-4
[52] = tested on: SNB-75
[53] = tested on: ACHN
[54] = tested on: DU-145
[55] = tested on: KM12
[56] = tested on: HT-29
[57] = tested on: SNB-19
[58] = tested on: SF-539
[59] = tested on: HOP-62
[60] = tested on: EKVX

Measured: GI50

O=C(Nc1ccc(Cl)cc1Cl)C(=O)Nn1c(S)nc2ccccc2c1=O
inactive: [1] > 100 µM | [2] > 100 µM | [3] > 100 µM | [4] > 100 µM | [5] > 100 µM | [6] > 100 µM | [7] > 100 µM | [8] > 100 µM | [9] > 100 µM | [10] > 100 µM | [11] > 100 µM | [12] > 100 µM | [13] > 100 µM | [14] > 100 µM | [15] > 100 µM | [16] > 100 µM | [17] > 100 µM | [18] > 100 µM | [19] > 100 µM | [20] > 100 µM | [21] > 100 µM | [22] > 100 µM | [23] > 100 µM | [24] > 100 µM | [25] > 100 µM | [27] > 100 µM | [28] > 100 µM | [29] > 100 µM | [30] > 100 µM
> 100 µM: [26]

CCOC(=O)C=C1CCC2(CC1)OCCO2
inactive: [31] > 100 µM | [32] > 100 µM | [33] > 100 µM | [1] > 100 µM | [2] > 100 µM | [3] > 100 µM | [4] > 100 µM | [5] > 100 µM | [6] > 100 µM | [7] > 100 µM | [8] > 100 µM | [9] > 100 µM | [10] > 100 µM | [34] > 100 µM | [35] > 100 µM | [36] > 100 µM | [37] > 100 µM | [11] > 100 µM | [12] > 100 µM | [13] > 100 µM | [38] > 100 µM | [14] > 100 µM | [15] > 100 µM | [16] > 100 µM | [39] > 100 µM | [17] > 100 µM | [18] > 100 µM | [40] > 100 µM | [41] > 100 µM | [42] > 100 µM | [43] > 100 µM | [44] > 100 µM | [19] > 100 µM | [20] > 100 µM | [21] > 100 µM | [45] > 100 µM | [46] > 100 µM | [47] > 100 µM | [24] > 100 µM | [48] > 100 µM | [25] > 100 µM | [49] > 100 µM | [50] > 100 µM | [51] > 100 µM | [52] > 100 µM | [53] > 100 µM | [54] > 100 µM | [55] > 100 µM | [56] > 100 µM | [27] > 100 µM | [57] > 100 µM | [29] > 100 µM | [30] > 100 µM | [58] > 100 µM
> 100 µM: [26]

N#CC1=C(c2ccccc2)NNC(c2ccc(Cl)cc2)CC1=O (stereo unspecified)
inactive: [31] 24 µM | [32] > 100 µM | [33] 68.7 µM | [1] > 10 µM | [2] 54.2 µM | [5] 57.8 µM | [6] 44.4 µM | [7] > 100 µM | [9] 29.4 µM | [35] 26.2 µM | [37] 24.6 µM | [11] 39.9 µM | [12] 29.9 µM | [13] 32.4 µM | [15] 25.6 µM | [16] 36.1 µM | [17] 50.8 µM | [18] 49.3 µM | [40] 20.9 µM | [41] 43.3 µM | [42] 33.5 µM | [43] 32.4 µM | [44] 73.6 µM | [19] 17.6 µM | [20] 56.6 µM | [21] 91.4 µM | [45] 40.6 µM | [46] 32.8 µM | [47] 37.1 µM | [59] 23.3 µM | [22] > 100 µM | [24] 20.4 µM | [48] 45 µM | [49] 45.5 µM | [51] 42.9 µM | [52] 14.8 µM | [53] 49.2 µM | [55] 38 µM | [56] 30.8 µM | [27] 28.7 µM | [57] 53.2 µM | [28] 82.2 µM | [29] 39.2 µM | [30] 58.7 µM
26.2 µM: [26]
active: [38] 0.165 µM

CCOC(=O)CN.CCOC(=O)Nc1ccc(S(=O)(=O)OC)cc1.CCOC(=O)Nc1ccc(S(=O)(=O)OC)cc1
inactive: [31] > 50 µM | [32] > 50 µM | [33] > 50 µM | [1] > 50 µM | [3] > 50 µM | [4] > 50 µM | [5] 9.25 µM | [6] > 50 µM | [7] > 50 µM | [8] > 50 µM | [9] > 50 µM | [10] > 50 µM | [34] > 50 µM | [36] > 50 µM | [37] > 50 µM | [11] > 50 µM | [12] > 50 µM | [13] > 50 µM | [38] > 50 µM | [14] > 50 µM | [15] > 50 µM | [16] 17.8 µM | [39] > 50 µM | [17] > 50 µM | [18] > 50 µM | [40] > 50 µM | [41] > 50 µM | [42] 7.83 µM | [43] > 50 µM | [44] > 50 µM | [19] > 50 µM | [20] > 50 µM | [21] > 50 µM | [45] > 50 µM | [46] > 50 µM | [47] > 50 µM | [59] > 50 µM | [22] > 50 µM | [23] > 50 µM | [60] > 50 µM | [48] > 50 µM | [25] > 50 µM | [49] > 50 µM | [50] > 50 µM | [51] > 50 µM | [52] > 50 µM | [53] > 50 µM | [55] > 50 µM | [56] > 50 µM | [27] > 50 µM | [57] > 50 µM | [28] > 50 µM | [30] > 50 µM | [58] > 50 µM
> 50 µM: [26]
